Data taken from PMC3589659 (Investigational New Drugs, 2012).
Read-outs that look alike come from different tables or passages of the source. Marks after values point to notes of the source that are not given here.

How the values were obtained:
[1] = test system: p27^KIP1 in epidermal keratinocytes; assay: Pharmacodynamics: immunohistochemistry on skin punch biopsies, p27KIP1; details: doses of ≥ 55 mg/day, Day 21
advanced solid tumors = assay: Antitumor activity, objective tumor response by RECIST 1.0
[2] = test system: patients with advanced solid tumors; details: human, in vivo
[3] = human, in vivo
[4] = Plasma pharmacokinetics, non-compartmental analysis; details: 65 mg once daily, Day 21, individual values of 2 patients
[5] = test system: patients with advanced solid tumors; assay: Phase I dose escalation: dose-limiting toxicities and maximum tolerated dose; details: oral once daily, 3-week-on/1-week-off schedule
[6] = test system: pMAPK in epidermal keratinocytes; assay: Pharmacodynamics: immunohistochemistry on skin punch biopsies, pMAPK; details: pretreatment versus on-therapy (Day 21)
[7] = test system: pAkt in epidermal keratinocytes; assay: Pharmacodynamics: immunohistochemistry on skin punch biopsies, pAkt; details: pretreatment versus on-therapy (Day 21)
[8] = test system: patients with advanced solid tumors; assay: Safety and tolerability: adverse events graded by CTCAE version 3.0; type: in vivo, human
[9] = test system: Ki-67 in epidermal keratinocytes; details: doses of ≥ 55 mg/day, Day 21 versus pretreatment
clinical = details: human, in vivo; for AUC(0-t): AUC0–24,ss; for CL/F: CL/Fss; for Cmax: Cmax,ss; for Vd/F: Vz/Fss

CN(C)C/C=C/C(=O)Nc1cc2c(Nc3ccc(F)c(Cl)c3)ncnc2cc1O[C@H]1CCOC1 [afatinib]
increase in the total number of p27^KIP1-positive epidermal keratinocytes versus pretreatment [1]: about 16% | Discontinued due to disease progression, n (%) (advanced solid tumors; 10 mg/day): 3 (100.0) n (%) | Discontinued due to disease progression, n (%) (advanced solid tumors; 20 mg/day): 2 (33.3) n (%) | Discontinued due to disease progression, n (%) (advanced solid tumors; 40 mg/day): 3 (37.5) n (%) | Discontinued due to disease progression, n (%) (advanced solid tumors; 55 mg/day): 8 (40.0) n (%) | Discontinued due to disease progression, n (%) (advanced solid tumors; 65 mg/day): 1 (16.7) n (%) | confirmed objective responses (advanced solid tumors; RECIST 1.0, all doses): no confirmed objective responses | Discontinued due to disease progression, n (%) (advanced solid tumors; Total, all doses): 17 (39.5) n (%) | decrease in tumor size (advanced solid tumors; one patient with CRC): 14% | decrease in tumor size (advanced solid tumors; one patient with NSCLC): 27% | tumor shrinkage (advanced solid tumors; one patient with parotid carcinoma, Cycle 4, maintained until Cycle 6): 13% | patients with stable disease for at least 16 weeks (advanced solid tumors; received at least 5 cycles of treatment): 8 patients | Discontinued due to DLT, n (%) [2]: 4 (9.3) n (%) | DLTs occurring during the first treatment cycle, n (%) ([2]; 28 day): 11 (25.6) n (%) | recommended dose for further studies using this schedule ([2]; 28 day): 40 mg/day | time to reach steady-state [3]: ≤ 8 days | AUC0–24,ss,norm ([3]; 10 mg): 6.37 (99.8) [ng·h/mL]/mg | Cmax,ss,norm ([3]; 10 mg): 0.399 (83.7) [ng/mL]/mg | AUC0–24,ss,norm ([3]; 20 mg): 22.8 (61.8) [ng·h/mL]/mg | Cmax,ss,norm ([3]; 20 mg): 1.57 (94.1) [ng/mL]/mg | AUC0–24,ss,norm ([3]; 40 mg): 22.7 (69.1) [ng·h/mL]/mg | Cmax,ss,norm ([3]; 40 mg): 1.47 (83.7) [ng/mL]/mg | AUC0–24,ss,norm ([3]; 55 mg): 24.7 (68.1)^b [ng·h/mL]/mg | Cmax,ss,norm ([3]; 55 mg): 1.65 (67.8)^b [ng/mL]/mg | t½,ss [4]: 25.8 h | maximum tolerated dose (MTD) [5]: 55 mg/day | change in level of pMAPK in normal skin punch biopsies [6]: No significant changes | change in level of pAkt in paired skin biopsies [7]: no significant difference | drug-related diarrhea ([8]; 10 mg): no drug-related diarrhea was observed | treatment-related Grade ≥2 AEs ([8]; 10 mg dose cohort): No treatment-related Grade ≥2 AEs were observed | drug-related diarrhea ([8]; 20 mg): no drug-related diarrhea was observed | patients who developed diarrhea ([8]; 40 mg): 50% | Discontinued due to other toxicity, n (%) ([8]; 40 mg/day): 1 (12.5) n (%) | patients who developed diarrhea ([8]; 55 mg): 90% | Discontinued due to other toxicity, n (%) ([8]; 55 mg/day): 4 (20.0) n (%) | Discontinued due to other toxicity, n (%) ([8]; 65 mg/day): 2 (33.3) n (%) | patients who developed diarrhea ([8]; 65 mg/day): 100% | Discontinued due to other toxicity, n (%) ([8]; Total, all doses): 7 (16.3) n (%) | Grade 4 or 5 AEs ([8]; all doses): No Grade 4 or 5 AEs were observed | Grade ≥2 reductions in LVEF ([8]; all doses): No patients had Grade ≥2 reductions in LVEF | cases in which diarrhea started within 1–7 days after treatment initiation ([8]; all doses): 80% | patients who experienced a serious adverse event (SAE) ([8]; all doses): 34.9% | patients with drug-related AEs within their first 28-day cycle ([8]; all doses): 38 patients | skin events considered to be related to afatinib ([8]; all doses): 91% | drug-related anorexia ([8]; all doses, entire trial): 16.3% | drug-related diarrhea ([8]; all doses, entire trial): 65.1% | drug-related epistaxis ([8]; all doses, entire trial): 23.3% | drug-related fatigue ([8]; all doses, entire trial): 20.9% | drug-related mucosal inflammation ([8]; all doses, entire trial): 23.3% | drug-related nausea ([8]; all doses, entire trial): 41.9% | drug-related rash ([8]; all doses, entire trial): 58.1% | drug-related stomatitis ([8]; all doses, entire trial): 25.6% | drug-related vomiting ([8]; all doses, entire trial): 34.9% | start of skin events after treatment initiation ([8]; majority of cases): 7 to 28 days | start of diarrhea after afatinib treatment initiation ([8]; majority of cases (80 %)): 1 to 7 days | deaths during afatinib administration considered to be related to afatinib ([8]; three deaths occurred): None | reduction of the number of Ki-67-positive cells in skin biopsies [9]: 31% | Tmax (clinical; 10 mg): 4 h | half-life (clinical; 10 mg): 35.7 h | AUC(0-t) (clinical; 10 mg): 63.7 ng·h/mL | CL/F (clinical; 10 mg): 2620 mL/min | Cmax (clinical; 10 mg): 3.99 ng/mL | Vd/F (clinical; 10 mg): 8080 L | half-life (clinical; 20 mg): 43.2 h | AUC(0-t) (clinical; 20 mg): 455 ng·h/mL | CL/F (clinical; 20 mg): 732 mL/min | Cmax (clinical; 20 mg): 31.3 ng/mL | Vd/F (clinical; 20 mg): 2740 L | half-life (clinical; 40 mg): 42.8 h | CL/F (clinical; 40 mg): 734 mL/min | Cmax (clinical; 40 mg): 58.9 ng/mL | Vd/F (clinical; 40 mg): 2720 L | half-life (clinical; 55 mg): 35.1 h | AUC(0-t) (clinical; 55 mg): 1360 ng·h/mL | CL/F (clinical; 55 mg): 653 mL/min | Cmax (clinical; 55 mg): 90.8 ng/mL | Vd/F (clinical; 55 mg): 2040 L | Tmax (clinical; 65 mg): 9 h
